Key:
[1] = test system: mouse model of Parkinson's disease; assay: MPTP-induced motor dysfunctions, rotarod and pole test; assay type: in vivo, mice; conditions: PACA 15 mg/kg p.o. and MPTP 25 mg/kg i.p. daily for seven days, rotarod and pole test at day-8
Method: FIG. 11. In vivo Effect of PACA on MPTP-induced motor dysfunctions in mice. (A) Study design. (B) Rotarod test. Mice were placed on horizontal drums (30 mm in diameter), rotating at a progressively increasing speed, from 4 to 32 rpm over a 5-min period. The time that each animal stayed on the rod before falling was measured. (C) Pole test. Mice were placed with facing head-up on the top of the 50 cm long metal rod (1 cm diameter). Total time for each animal to reach the base of the pole was recorded. Each mouse was tested for three times. The data were presented as Mean±SEM and analyzed by one-way ANOVA with post-hoc Dunnett test. *p<0.05; **, p<0.01.
The in vivo neuroprotective effect of PACA was evaluated in a mouse model of Parkinson's disease. Nineteen mice were randomly divided into three groups: control (n=5), receiving vehicle administrations; MPTP (n=7), receiving i.p. injection of MPTP (25 mg/kg) every afternoon for seven days; MPTP+PACA (n=7), receiving p.o administration of PACA (15 mg/kg) every morning and i.p. injection of MPTP (25 mg/kg) every afternoon for seven days. At day-8, the motor functions of mice were assessed by rotarod performance test and pole test.

Nrf2 = Nrf2 translocation into cell nuclei, Western blot and immunostaining; assay type: cell-based, rat
Method: Direct modification of Keap1 caused the dissociation of Nrf2-Keap1 complex. Based on Western blot analysis of the nuclear proteins and immunostaining of intracellular Nrf2, PACA induced the translocation of Nrf2 into the cell nuclei in a concentration-dependent manner. (A) Western blot analysis of cytosolic and nuclear Nrf2. Following PACA treatment, the cytosolic and nuclear proteins were isolated and analyzed by Western blotting for Nrf2 expression. GAPDH and lamin b were analyzed as the control of protein loading. (B) Immunostaining of the intracellular Nrf2. Following PACA treatment, the cells were probed with Nrf2 antibody, and subsequently visualized with […] secondary antibody. […] The images were captured under a fluorescence microscope. […]
Direct modification of Keap1 caused the dissociation of Nrf2-Keap1 complex. […] For Western blot analysis, the cellular proteins were separated into the cytosolic and nuclear fractions, and analyzed by Western blotting with Nrf2 antibodies. GAPDH was used as the control of protein loading, whereas Lamin B was detected as the nuclear biomarker. […] For immunostaining of the intracellular Nrf2, on the other hand, PC12 cells were sequentially probed with rabbit anti-Nrf2 antibody and detected by Alexa Fluor 594-conjugated goat anti-rabbit IgG antibodies PACA. The images were captured under a Zeiss fluorescence microscope.

Keap1 = target: T1, Keap1 (Rattus norvegicus, UniProt P57790); assay: Identification of PACA-modified proteins by Click chemistry biotin tagging and affinity isolation; assay type: cell-based; conditions: 20 μM PACA, biotin tag by Click chemistry, Keap1 antibody pull-down
T1 construct: endogenous in cells; host or cells: PC12 (rat pheochromocytoma) cells
T1 sequence (P57790 whole entry): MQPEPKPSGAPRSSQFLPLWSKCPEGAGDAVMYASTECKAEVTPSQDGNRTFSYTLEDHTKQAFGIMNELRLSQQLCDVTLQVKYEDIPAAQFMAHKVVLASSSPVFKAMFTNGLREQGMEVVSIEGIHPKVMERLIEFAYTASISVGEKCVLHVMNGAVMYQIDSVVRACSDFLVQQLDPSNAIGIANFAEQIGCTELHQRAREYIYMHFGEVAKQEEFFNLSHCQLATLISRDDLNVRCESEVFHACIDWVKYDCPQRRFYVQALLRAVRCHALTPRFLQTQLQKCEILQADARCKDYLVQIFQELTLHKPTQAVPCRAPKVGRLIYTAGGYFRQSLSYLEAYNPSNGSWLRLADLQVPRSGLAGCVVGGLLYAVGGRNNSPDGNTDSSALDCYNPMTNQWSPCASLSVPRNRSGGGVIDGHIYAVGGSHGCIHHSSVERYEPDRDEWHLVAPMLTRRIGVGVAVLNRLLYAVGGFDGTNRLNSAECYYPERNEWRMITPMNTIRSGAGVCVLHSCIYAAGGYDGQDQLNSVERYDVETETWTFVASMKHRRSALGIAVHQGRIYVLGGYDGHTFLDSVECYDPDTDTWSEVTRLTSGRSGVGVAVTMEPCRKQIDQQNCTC
Method: PACA directly modifies the proteins bearing free cysteine residues after oxidase-mediated oxidation into chemically reactive o-quinone. At the end of 24 hour incubation, a biotin tag was introduced to the proteins that were covalently modified by PACA. Following affinity isolation with anti-Keap1 antibody bead, streptavidin-horseradish peroxidase (HRP) detected Keap1 as the predominant PACA-modified protein with the apparent molecular size of ˜72 kDa. (A) Biotinylation of PACA-modified proteins by Click chemistry. Oxidase represents the enzymes that oxidize PACA to o-quinone, Protein-SH represents the protein bearing free cysteine residues. (B) Procedure for the isolation of PACA-modified proteins. (C) Western blotting analysis of PACA-modified proteins. PC12 cells were treated with PACA (20 μM) for 6 h. […] All protein fractions were resolved by SDS-PAGE and detected by streptavidin-HRP conjugate. […]
PACA is converted to the chemically reactive o-quinone intermediate by the intracellular oxidases after PACA got inside the cells. […] Following gel electrophoresis and Western blotting onto PVDF (polyvinylidene difluoride) membranes, HRP-streptavidin conjugate detected a predominant ˜70 kDa protein band (data not shown). Such protein band was also detected by keap1 antibody through a similar procedure. […] The blots were probed by HRP-conjugated streptavidin, and subsequently detected by chemiluminescence. […]

PC12 cells = assay: NGF-induced neurite outgrowth (neuritogenic activity) in PC12 cells; assay type: cell-based, rat; conditions: 72 hours
Method: The neuritogenic potential of PACA was verified by the induction of the main neuronal biomarkers (i.g., β3-tubulin, MAP-2 and GAP43). (A) Representative images for the potentiation of NGF-induced neurite outgrowth in PC12 cells by PACA. PC12 cells were treated with NGF (2 ng/ml) and PACA, alone or in combination. The cells were stained with neurite outgrowth staining kit and imaged under a fluorescence microscope. (B) Quantification of neurite outgrowth in Panel A. Following the staining of neurites, the cells bearing neurites longer than 20 μm were counted under a fluorescence microscope. **, p<0.01 (sample vs NGF alone). (C) Western blot analysis of neuronal biomarkers. The cells were treated with NGF and PACA, alone or in combination, whereas the control cells were treated with vehicle for 72 hours. The cellular proteins were extracted and detected by Western blot analysis for the expression of neuron marker. GAPDH was detected as the control of protein loading.
The neuritogenic activity of PACA was evaluated in rat dopaminergic PC12 cells. PC12 cells were treated with NGF (2 ng/mL) alone or in combination with PACA at the concentrations of 5, 10, 20 μM for 72 hours. The cells were stained by a neurite outgrowth kit, and subsequently analyzed for neurites (>20 μm) under a fluorescence microscope. […] Following the treatment with PACA and NGF, alone or in combination, PC12 cells were analyzed by Western blotting for the expression of neuronal biomarkers (i.g., β3-tubulin, MAP2 and GAP-43).

Q: For `C#CCNC(=O)/C=C/c1ccc(O)c(O)c1` [PACA, (E)-3-(3,4-dihydroxyphenyl)-N-(prop-2-yn-1-yl)acrylamide], which “protection against MPTP-induced motor dysfunctions” value [1] is on record?
A: The value was “effectively protected animals against MPTP-induced motor dysfunctions”.

Q: What about the “levels of nuclear Nrf2” value (Nrf2; PACA at different concentrations, Western blot of nuclear fraction) of the same compound?
A: The value was “significantly increased the levels of nuclear Nrf2 in a concentration-dependent manner”.

Q: And the “intracellular Nrf2 localization by immunostaining” value (Nrf2; PC12 cells, anti-Nrf2 immunostaining)?
A: The value was “promoted the accumulation of Nrf2 in the cell nucleus”.

Q: And the “PACA-modified protein isolated from treated PC12 cells” value (Keap1)?
A: Its value is “kelch-like ECH-associated protein 1 (Keap1) was isolated as the predominant protein”.

Q: And the “neurite outgrowth by compound alone” value (PC12 cells; PACA 20 μM alone)?
A: The value was “did not induce neurite outgrowth”.

Q: And the “increase in number of neurite-bearing cells relative to NGF alone” value (PC12 cells; PACA 20 μM and NGF 2 ng/mL in combination)?
A: Its value is about 6 fold.

Q: And the “potentiation of NGF-induced neurite outgrowth” value (PC12 cells; PACA 5, 10, 20 μM with NGF 2 ng/mL, neurites >20 μm, compared with NGF alone)?
A: Its value is “significantly potentiated NGF-induced neurite outgrowth in a concentration-dependent manner”.

— patent US10259777B2, “(E)-3-(3,4-dihydroxyphenyl)-N-(prop-2-yn-1-yl)acrylamide for treatment of neurodegenerative diseases” (THE UNIVERSITY OF HONG KONG, priority 2015, dated 2019)
